Measurements from ChEMBL document CHEMBL1201862, “PubChem BioAssay data set” (2004).
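In this assay, cells in 96-well plates receive the compound at five concentrations for 48 hours. Endpoints are linearly interpolated between the surrounding concentrations. The concentration for 50% growth inhibition is given as GI50.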 The source made the active and inactive calls. Cut-off read from the data, not from the text of the source: active = GI50 up to about 1.1 µM and inactive = higher.

How the values were obtained:
Test in all cases: NCI anticancer screen, dose series, 48 h
SNB-19 = test system: SNB-19
IGROV-1 = test system: IGROV-1
UACC-257 = test system: UACC-257
OVCAR-3 = test system: OVCAR-3
A549 = test system: A549
SW-620 = test system: SW-620
RPMI-8226 = test system: RPMI-8226
MDA-MB-435 = test system: MDA-MB-435
COLO 205 = test system: COLO 205
DU-145 = test system: DU-145
786-0 = test system: 786-0
NCI-H226 = test system: NCI-H226
HCT-15 = test system: HCT-15
SF-268 = test system: SF-268
EKVX = test system: EKVX
BT-549 = test system: BT-549
SK-MEL-5 = test system: SK-MEL-5
HT-29 = test system: HT-29
ACHN = test system: ACHN
MCF7 = test system: MCF7
SK-OV-3 = test system: SK-OV-3
CCRF-CEM = test system: CCRF-CEM
U-251 = test system: U-251
HOP-92 = test system: HOP-92
PC-3 = test system: PC-3
HL-60 = test system: HL-60
SF-539 = test system: SF-539
NCI-H522 = test system: NCI-H522
TK-10 = test system: TK-10
NCI-H460 = test system: NCI-H460
SR = test system: SR
OVCAR-5 = test system: OVCAR-5
RXF 393 = test system: RXF 393
KM12 = test system: KM12
SK-MEL-28 = test system: SK-MEL-28
OVCAR-8 = test system: OVCAR-8
Malme-3M = test system: Malme-3M
SK-MEL-2 = test system: SK-MEL-2
CAKI-1 = test system: CAKI-1
HCT-116 = test system: HCT-116
UACC-62 = test system: UACC-62
NCI-H23 = test system: NCI-H23
Hs-578T = test system: Hs-578T
A498 = test system: A498
MDA-MB-231 = test system: MDA-MB-231
HCC 2998 = test system: HCC 2998
LOX IMVI = test system: LOX IMVI
M14 = test system: M14
T47D = test system: T47D
NCI/ADR-RES = test system: NCI/ADR-RES
SN12C = test system: SN12C
HOP-62 = test system: HOP-62
K562 = test system: K562
UO-31 = test system: UO-31
SF-295 = test system: SF-295
MDA-N = test system: MDA-N
MOLT-4 = test system: MOLT-4
SNB-75 = test system: SNB-75
OVCAR-4 = test system: OVCAR-4

Cc1cc2c(C(C)C)c(O)c(O)c(/C=N/c3cc(C(F)(F)F)ccc3Cl)c2c(O)c1-c1c(C)cc2c(C(C)C)c(O)c(O)c(/C=N/c3cc(C(F)(F)F)ccc3Cl)c2c1O
GI50 (SNB-19): 28.1 µM (inactive) | GI50 (IGROV-1): 25.1 µM (inactive) | GI50 (UACC-257): 37.4 µM (inactive) | GI50 (OVCAR-3): 37.3 µM (inactive) | GI50 (A549): 38.5 µM (inactive) | GI50 (SW-620): 58.2 µM (inactive) | GI50 (RPMI-8226): 50.7 µM (inactive) | GI50 (MDA-MB-435): 32.6 µM (inactive) | GI50 (COLO 205): 31.2 µM (inactive) | GI50 (DU-145): > 100 µM (inactive) | GI50 (786-0): 50.6 µM (inactive) | GI50 (NCI-H226): 29 µM (inactive) | GI50 (HCT-15): 34.8 µM | GI50 (SF-268): 37.2 µM (inactive) | GI50 (EKVX): 98.6 µM (inactive) | GI50 (BT-549): 28.3 µM (inactive) | GI50 (SK-MEL-5): 23.6 µM (inactive) | GI50 (HT-29): 32.5 µM (inactive) | GI50 (ACHN): 24.9 µM (inactive) | GI50 (MCF7): 27.7 µM (inactive) | GI50 (SK-OV-3): 12.5 µM (inactive) | GI50 (CCRF-CEM): > 100 µM (inactive) | GI50 (U-251): 19.3 µM (inactive) | GI50 (HOP-92): 16.6 µM (inactive) | GI50 (PC-3): 35 µM (inactive) | GI50 (HL-60): 26.9 µM (inactive) | GI50 (SF-539): 58.6 µM (inactive) | GI50 (NCI-H522): 21.5 µM (inactive) | GI50 (TK-10): 60.7 µM (inactive) | GI50 (NCI-H460): 31.3 µM (inactive) | GI50 (SR): 25.4 µM (inactive) | GI50 (OVCAR-5): 77.3 µM (inactive) | GI50 (RXF 393): 28.8 µM (inactive) | GI50 (KM12): 30.1 µM (inactive) | GI50 (SK-MEL-28): 38.1 µM (inactive) | GI50 (OVCAR-8): 44.5 µM (inactive) | GI50 (Malme-3M): 32.8 µM (inactive) | GI50 (SK-MEL-2): 35.3 µM (inactive) | GI50 (CAKI-1): 48.3 µM (inactive) | GI50 (HCT-116): 74.8 µM (inactive) | GI50 (UACC-62): 24.6 µM (inactive) | GI50 (NCI-H23): 57.8 µM (inactive) | GI50 (Hs-578T): > 100 µM (inactive) | GI50 (A498): 64.3 µM (inactive) | GI50 (MDA-MB-231): 25.6 µM (inactive) | GI50 (HCC 2998): 62.7 µM (inactive) | GI50 (LOX IMVI): 22.6 µM (inactive) | GI50 (M14): 75.3 µM (inactive) | GI50 (T47D): 29.6 µM (inactive) | GI50 (NCI/ADR-RES): 63.5 µM (inactive) | GI50 (SN12C): 49.1 µM (inactive) | GI50 (HOP-62): 70.5 µM (inactive) | GI50 (K562): 39.4 µM (inactive) | GI50 (UO-31): 30.2 µM (inactive)

O=S(=O)(O)c1ccc(O)c2ncc(Cl)cc12
GI50 (SNB-19): > 100 µM (inactive) | GI50 (IGROV-1): > 100 µM (inactive) | GI50 (UACC-257): > 100 µM (inactive) | GI50 (OVCAR-3): > 100 µM (inactive) | GI50 (A549): > 100 µM (inactive) | GI50 (SF-295): > 100 µM (inactive) | GI50 (SW-620): > 100 µM (inactive) | GI50 (RPMI-8226): 51.1 µM (inactive) | GI50 (MDA-MB-435): > 100 µM (inactive) | GI50 (COLO 205): > 100 µM (inactive) | GI50 (MDA-N): > 100 µM (inactive) | GI50 (DU-145): > 100 µM (inactive) | GI50 (786-0): > 100 µM (inactive) | GI50 (NCI-H226): > 100 µM (inactive) | GI50 (HCT-15): > 100 µM | GI50 (EKVX): > 100 µM (inactive) | GI50 (MOLT-4): > 100 µM (inactive) | GI50 (BT-549): > 100 µM (inactive) | GI50 (SK-MEL-5): > 100 µM (inactive) | GI50 (HT-29): > 100 µM (inactive) | GI50 (ACHN): > 100 µM (inactive) | GI50 (MCF7): > 100 µM (inactive) | GI50 (CCRF-CEM): > 100 µM (inactive) | GI50 (U-251): > 100 µM (inactive) | GI50 (SNB-75): > 100 µM (inactive) | GI50 (HOP-92): > 100 µM (inactive) | GI50 (PC-3): > 100 µM (inactive) | GI50 (SF-539): > 100 µM (inactive) | GI50 (NCI-H460): > 100 µM (inactive) | GI50 (SR): > 100 µM (inactive) | GI50 (OVCAR-5): > 100 µM (inactive) | GI50 (RXF 393): > 100 µM (inactive) | GI50 (KM12): > 100 µM (inactive) | GI50 (SK-MEL-28): > 100 µM (inactive) | GI50 (OVCAR-8): > 100 µM (inactive) | GI50 (SK-MEL-2): > 100 µM (inactive) | GI50 (CAKI-1): > 100 µM (inactive) | GI50 (HCT-116): > 100 µM (inactive) | GI50 (UACC-62): > 100 µM (inactive) | GI50 (OVCAR-4): > 100 µM (inactive) | GI50 (NCI-H23): > 100 µM (inactive) | GI50 (A498): > 100 µM (inactive) | GI50 (MDA-MB-231): > 100 µM (inactive) | GI50 (HCC 2998): > 100 µM (inactive) | GI50 (LOX IMVI): > 100 µM (inactive) | GI50 (M14): > 100 µM (inactive) | GI50 (T47D): > 100 µM (inactive) | GI50 (NCI/ADR-RES): > 100 µM (inactive) | GI50 (SN12C): > 100 µM (inactive) | GI50 (HOP-62): > 100 µM (inactive) | GI50 (K562): > 100 µM (inactive) | GI50 (UO-31): > 100 µM (inactive)

Cc1oc2nc(N(C)C)n3c(C)nnc3c2c1C
GI50 (SNB-19): > 100 µM (inactive) | GI50 (IGROV-1): > 100 µM (inactive) | GI50 (UACC-257): > 100 µM (inactive) | GI50 (A549): > 100 µM (inactive) | GI50 (SF-295): > 100 µM (inactive) | GI50 (SW-620): > 100 µM (inactive) | GI50 (RPMI-8226): > 100 µM (inactive) | GI50 (MDA-MB-435): > 100 µM (inactive) | GI50 (COLO 205): > 100 µM (inactive) | GI50 (DU-145): > 100 µM (inactive) | GI50 (786-0): > 100 µM (inactive) | GI50 (NCI-H226): > 100 µM (inactive) | GI50 (HCT-15): > 100 µM | GI50 (SF-268): > 100 µM (inactive) | GI50 (EKVX): > 100 µM (inactive) | GI50 (MOLT-4): > 100 µM (inactive) | GI50 (BT-549): > 100 µM (inactive) | GI50 (SK-MEL-5): > 100 µM (inactive) | GI50 (HT-29): > 100 µM (inactive) | GI50 (ACHN): > 100 µM (inactive) | GI50 (MCF7): > 100 µM (inactive) | GI50 (SK-OV-3): > 100 µM (inactive) | GI50 (CCRF-CEM): > 100 µM (inactive) | GI50 (U-251): > 100 µM (inactive) | GI50 (SNB-75): > 100 µM (inactive) | GI50 (HOP-92): > 100 µM (inactive) | GI50 (SF-539): > 100 µM (inactive) | GI50 (NCI-H522): > 100 µM (inactive) | GI50 (TK-10): > 100 µM (inactive) | GI50 (SR): > 100 µM (inactive) | GI50 (OVCAR-5): > 100 µM (inactive) | GI50 (RXF 393): > 100 µM (inactive) | GI50 (KM12): > 100 µM (inactive) | GI50 (SK-MEL-28): > 100 µM (inactive) | GI50 (OVCAR-8): > 100 µM (inactive) | GI50 (CAKI-1): > 100 µM (inactive) | GI50 (HCT-116): > 100 µM (inactive) | GI50 (UACC-62): > 100 µM (inactive) | GI50 (OVCAR-4): > 100 µM (inactive) | GI50 (NCI-H23): > 100 µM (inactive) | GI50 (Hs-578T): > 100 µM (inactive) | GI50 (A498): > 100 µM (inactive) | GI50 (MDA-MB-231): > 100 µM (inactive) | GI50 (HCC 2998): > 100 µM (inactive) | GI50 (LOX IMVI): > 100 µM (inactive) | GI50 (M14): > 100 µM (inactive) | GI50 (T47D): > 100 µM (inactive) | GI50 (NCI/ADR-RES): > 100 µM (inactive) | GI50 (SN12C): > 100 µM (inactive) | GI50 (K562): > 100 µM (inactive) | GI50 (UO-31): > 100 µM (inactive)
